Reference: the SangsterLogP compilation

Work on `CC(C)[C@H](C(=O)NO)N(Cc1cccnc1)S(=O)(=O)c1cccc(Br)c1` yielded a logP of 1.92.

`CONC(=O)[C@@H](C(C)C)N(Cc1cccnc1)S(=O)(=O)c1ccccc1Br` gave a logP of 3.34.

`CONC(=O)C(C(C)C)N(Cc1cccnc1)S(=O)(=O)c1ccc(I)cc1` (configuration not stated) showed a logP of 3.11.

Molecule `CC(C)C(C(=O)NO)N(Cc1cccnc1)S(=O)(=O)c1ccccc1Br` (configuration not stated) has a logP of 1.54.

`CONC(=O)[C@@H](C(C)C)N(Cc1cccnc1)S(=O)(=O)c1ccccc1Cl` gave a logP of 2.01.

`CC(C)[C@H](C(=O)NO)N(Cc1cccnc1)S(=O)(=O)c1ccccc1Cl` showed a logP of 1.45.

Molecule `CONC(=O)[C@@H](C(C)C)N(Cc1cccnc1)S(=O)(=O)c1ccccc1F` has a logP of 2.67.

With `CONC(=O)[C@@H](C(C)C)N(Cc1cccnc1)S(=O)(=O)c1cccc(Cl)c1` the logP was 2.38.

`CONC(=O)[C@@H](C(C)C)N(Cc1cccnc1)S(=O)(=O)c1ccc(F)cc1` gave a logP of 2.

`CONC(=O)[C@@H](C(C)C)N(Cc1cccnc1)S(=O)(=O)c1ccc(Cl)cc1` gave a logP of 2.4.

`CC(C)[C@H](C(=O)NO)N(Cc1cccnc1)S(=O)(=O)c1ccc(Cl)cc1` showed a logP of 1.81.

In the case of `CC(C)[C@H](C(=O)NO)N(Cc1cccnc1)S(=O)(=O)c1ccc(I)cc1`, the logP is reported as 2.45.

`CC(C)[C@H](C(=O)NO)N(Cc1cccnc1)S(=O)(=O)c1ccc(F)cc1` showed a logP of 1.4.

`CC(C)C(C(=O)NO)N(Cc1cccnc1)S(=O)(=O)c1ccc(Br)cc1` (configuration not stated) showed a logP of 1.91.

`CONC(=O)[C@@H](C(C)C)N(Cc1cccnc1)S(=O)(=O)c1ccc(Br)cc1` showed a logP of 2.51.

With `CC(C)[C@H](C(=O)NO)N(Cc1cccnc1)S(=O)(=O)c1ccccc1F` the logP was 1.65.

Work on `CC(C)[C@H](C(=O)NO)N(Cc1cccnc1)S(=O)(=O)c1cccc(Cl)c1` yielded a logP of 1.82.
